Reference: patent publication US8410112B2, “Compounds useful as inhibitors of ATR kinase” (Vertex Pharmaceuticals Incorporated, priority 2008, dated 2013)

Each molecule was assayed against T1, full-length ATR (Homo sapiens, UniProt Q13535) (assay: ATR Inhibition Assay (radioactive-phosphate incorporation)). Conditions: Ki(app); 5 nM full-length ATR, 10 μM ATP, 800 μM target peptide, 25° C.
T1 construct: in the presence of 5 nM full-length ATR
Format: biochemical
Description: Test compounds were screened for their ability to inhibit ATR kinase using a radioactive-phosphate incorporation assay. Assays were carried out in a mixture of 50 mM
Tris/HCl (pH 7.5), 10 mM MgCl2 and 1 mM DTT. Final substrate concentrations were 10 μM [γ-33P]ATP (3 mCi 33 P ATP/mmol ATP, Perkin Elmer) and 800 μM target peptide ([…]). Assays were carried out at 25° C. in the presence of 5 nM full-length ATR. An assay stock buffer solution was prepared containing all of the reagents listed above, with the exception of ATP and the test compound of interest. […] The plate was pre-incubated for 10 minutes at 25° C. and the reaction initiated by addition of 15 μL [γ-33P]ATP (final concentration 10 μM).
The reaction was stopped after […] by the addition of 30 μL 0.1M phosphoric acid containing 2 mM ATP. A multiscreen phosphocellulose filter 96-well plate (Millipore, Cat no. MAPHN0B50) was pretreated with 100 μL 0.2M phosphoric acid prior to the addition of 45 μL of the stopped assay mixture. The plate was washed with 5×200 μL 0.2M phosphoric acid.
After removing mean background values for all of the data points, Ki(app) data were calculated from non-linear regression analysis of the initial rate data using the Prism software package (GraphPad Prism version 3.0cx for Macintosh, GraphPad Software, San Diego Calif., USA).

T1 sequence (Q13535 whole entry): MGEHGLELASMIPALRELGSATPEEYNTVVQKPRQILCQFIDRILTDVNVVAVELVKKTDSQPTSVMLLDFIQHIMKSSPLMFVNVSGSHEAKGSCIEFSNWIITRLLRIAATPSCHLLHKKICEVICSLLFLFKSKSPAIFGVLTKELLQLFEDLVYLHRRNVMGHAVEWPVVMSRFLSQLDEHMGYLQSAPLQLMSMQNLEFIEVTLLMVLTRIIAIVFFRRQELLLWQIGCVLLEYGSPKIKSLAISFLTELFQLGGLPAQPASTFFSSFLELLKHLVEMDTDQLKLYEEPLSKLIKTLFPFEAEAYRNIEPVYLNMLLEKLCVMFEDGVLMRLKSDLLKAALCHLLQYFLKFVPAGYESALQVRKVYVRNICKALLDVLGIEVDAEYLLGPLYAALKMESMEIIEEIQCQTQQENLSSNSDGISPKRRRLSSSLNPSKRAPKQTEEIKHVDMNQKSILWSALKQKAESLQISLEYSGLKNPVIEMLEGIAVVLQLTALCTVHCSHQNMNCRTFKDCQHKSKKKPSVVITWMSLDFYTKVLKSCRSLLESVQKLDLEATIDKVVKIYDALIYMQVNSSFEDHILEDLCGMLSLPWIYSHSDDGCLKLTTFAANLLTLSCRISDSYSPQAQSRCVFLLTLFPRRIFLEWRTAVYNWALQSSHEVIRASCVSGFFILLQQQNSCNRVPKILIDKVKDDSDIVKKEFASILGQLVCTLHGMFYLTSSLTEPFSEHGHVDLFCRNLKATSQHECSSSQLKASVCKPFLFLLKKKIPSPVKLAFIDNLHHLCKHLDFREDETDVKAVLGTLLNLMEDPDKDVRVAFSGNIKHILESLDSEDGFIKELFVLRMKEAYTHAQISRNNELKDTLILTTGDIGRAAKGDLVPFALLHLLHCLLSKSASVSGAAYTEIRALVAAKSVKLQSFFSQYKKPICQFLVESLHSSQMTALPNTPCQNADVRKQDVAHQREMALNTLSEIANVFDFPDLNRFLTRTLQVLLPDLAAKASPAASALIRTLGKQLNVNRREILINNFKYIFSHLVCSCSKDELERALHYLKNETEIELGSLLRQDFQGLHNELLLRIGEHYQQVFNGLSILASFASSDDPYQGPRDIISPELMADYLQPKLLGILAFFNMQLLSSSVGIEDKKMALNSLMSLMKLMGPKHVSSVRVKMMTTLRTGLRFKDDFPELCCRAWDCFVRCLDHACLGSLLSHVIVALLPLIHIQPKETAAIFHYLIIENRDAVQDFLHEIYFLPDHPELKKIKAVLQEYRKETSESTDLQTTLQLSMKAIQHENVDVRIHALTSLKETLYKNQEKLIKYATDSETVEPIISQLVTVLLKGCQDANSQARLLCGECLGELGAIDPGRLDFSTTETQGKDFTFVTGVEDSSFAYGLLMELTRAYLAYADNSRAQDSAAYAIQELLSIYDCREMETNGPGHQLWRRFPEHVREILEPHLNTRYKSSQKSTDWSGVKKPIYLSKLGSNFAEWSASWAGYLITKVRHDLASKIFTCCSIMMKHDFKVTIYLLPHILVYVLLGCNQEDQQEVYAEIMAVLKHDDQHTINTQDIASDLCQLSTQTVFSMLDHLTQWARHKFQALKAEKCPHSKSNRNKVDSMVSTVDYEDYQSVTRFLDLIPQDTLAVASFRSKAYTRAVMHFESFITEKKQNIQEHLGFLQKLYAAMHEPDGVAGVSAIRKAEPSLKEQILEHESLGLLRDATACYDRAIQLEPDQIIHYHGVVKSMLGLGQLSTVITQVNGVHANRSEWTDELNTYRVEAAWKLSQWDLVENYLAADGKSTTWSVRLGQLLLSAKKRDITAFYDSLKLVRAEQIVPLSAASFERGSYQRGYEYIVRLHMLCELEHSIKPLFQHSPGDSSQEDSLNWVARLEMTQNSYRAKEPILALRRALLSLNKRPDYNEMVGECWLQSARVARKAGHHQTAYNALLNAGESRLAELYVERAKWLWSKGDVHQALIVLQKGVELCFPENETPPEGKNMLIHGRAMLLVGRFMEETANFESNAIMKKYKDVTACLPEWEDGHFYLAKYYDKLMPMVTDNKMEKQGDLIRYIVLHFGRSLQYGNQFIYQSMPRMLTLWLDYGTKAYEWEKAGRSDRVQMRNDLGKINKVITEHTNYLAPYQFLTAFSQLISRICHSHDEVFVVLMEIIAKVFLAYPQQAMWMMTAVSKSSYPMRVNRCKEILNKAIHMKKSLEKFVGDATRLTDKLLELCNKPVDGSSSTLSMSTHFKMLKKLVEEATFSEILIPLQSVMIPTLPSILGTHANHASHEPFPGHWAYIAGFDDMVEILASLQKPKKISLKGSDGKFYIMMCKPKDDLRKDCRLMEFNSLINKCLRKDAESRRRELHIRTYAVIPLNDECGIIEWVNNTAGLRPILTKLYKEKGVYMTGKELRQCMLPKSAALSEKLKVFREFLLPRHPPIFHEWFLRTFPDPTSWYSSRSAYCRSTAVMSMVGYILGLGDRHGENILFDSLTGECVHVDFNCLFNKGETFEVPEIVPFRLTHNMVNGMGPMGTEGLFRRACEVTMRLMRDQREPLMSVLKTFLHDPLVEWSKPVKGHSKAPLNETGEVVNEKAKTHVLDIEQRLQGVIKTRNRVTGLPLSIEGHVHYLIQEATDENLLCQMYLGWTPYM

Row | Ki | Compound
1 | 100 to 1000 nM | CCC(=O)NC1CC[C@H]2CN(c3cnc(N)c(-c4nnc(-c5ccc(CNC)cc5)o4)n3)C[C@@H]12 (stereo partly drawn) [Compound I-355, N-((3aS,6aR)-2-(5-Amino-6-(5-(4-((methylamino)methyl)phenyl)-1,3,4-oxadiazol-2-yl)pyrazin-2-yl)octahydrocyclopenta[c]pyrrol-4-yl)propionamide]
2 | < 100 nM | CCS(=O)(=O)N1CCN(c2cnc(N)c(-c3nnc(-c4ccc(CNC)cc4)o3)n2)CC1 [Compound I-325, 5-(4-Ethylsulfonylpiperazin-1-yl)-3-[5-[4-(methylaminomethyl)phenyl]-1,3,4-oxadiazol-2-yl]pyrazin-2-amine]
3 | 1000 to 10000 nM | CCS(=O)(=O)N1CCC2(CCN(c3cnc(N)c(-c4nnc(-c5ccc(CNC)cc5)o4)n3)C2)C1 (centres unmarked) [Compound I-330, 5-(3-Ethylsulfonyl-3,7-diazaspiro[4.4]nonan-7-yl)-3-[5-[4-(methylaminomethyl)phenyl]-1,3,4-oxadiazol-2-yl]pyrazin-2-amine]
4 | 100 to 1000 nM | CCC(=O)N1CCN(c2cnc(N)c(-c3nnc(-c4ccc(CNC)cc4)o3)n2)C[C@H]1C [Compound I-315, 1-[(2R)-4-[5-Amino-6-[5-[4-(methylaminomethyl)phenyl]-1,3,4-oxadiazol-2-yl]pyrazin-2-yl]-2-methyl-piperazin-1-yl]propan-1-one]
5 | 100 to 1000 nM | CN1CCN(C(=O)N2CC=C(c3cnc(N)c(-c4nc5ccccc5[nH]4)n3)CC2)CC1 [Compound I-161, (4-(5-amino-6-(1H-benzo[d]imidazol-2-yl)pyrazin-2-yl)-5,6-dihydropyridin-1(2H)-yl)(4-methylpiperazin-1-yl)methanone]
6 | 1000 to 10000 nM | Cc1ccc2nc(-c3nc(N4CCn5cnnc5C4)cnc3N)[nH]c2c1 [Compound I-281, 5-(5,6-dihydro-[1,2,4]triazolo[4,3-a]pyrazin-7(8H)-yl)-3-(6-methyl-1H-benzo[d]imidazol-2-yl)pyrazin-2-amine]
7 | 1000 to 10000 nM | Nc1ncc(N2CCN(C(=O)c3ccccn3)CC2)nc1C(=O)Nc1ccccn1 [Compound I-148, 3-amino-N-(pyridin-2-yl)-6-(4-(pyridine-2-carbonyl)piperazin-1-yl)pyrazine-2-carboxamide]
8 | 100 to 1000 nM | CCS(=O)(=O)N1CCN(c2cnc(N)c(-c3nnc(-c4cccc(F)c4)o3)n2)CC1 [Compound I-283, 5-(4-ethylsulfonylpiperazin-1-yl)-3-[5-(3-fluorophenyl)-1,3,4-oxadiazol-2-yl]pyrazin-2-amine]
9 | 100 to 1000 nM | CCS(=O)(=O)N1CCN(c2cnc(N)c(-c3nc4ccc(C)cc4[nH]3)n2)CC1 [Compound I-6, 5-(4-(ethylsulfonyl)piperazin-1-yl)-3-(6-methyl-1H-benzo[d]imidazol-2-yl)pyrazin-2-amine]
10 | 100 to 1000 nM | CCS(=O)(=O)N1CCN(c2cnc(N)c(-c3cc(-c4ccccc4)no3)n2)CC1 [Compound I-162, 5-(4-(ethylsulfonyl)piperazin-1-yl)-3-(3-phenylisoxazol-5-yl)pyrazin-2-amine]
11 | 100 to 1000 nM | Nc1ncc(N2CCN(C(=O)C3CCCC3)CC2)nc1C(=O)Nc1ccccn1 [Compound I-144, 3-amino-6-(4-(cyclopentanecarbonyl)piperazin-1-yl)-N-(pyridin-2-yl)pyrazine-2-carboxamide]
12 | 1000 to 10000 nM | CNCc1ccc(-c2nnc(-c3nc(C4CC4C(=O)N4CC[C@@H](N)C4)cnc3N)o2)cc1 (stereo partly drawn) [Compound I-374, (2-(5-Amino-6-(5-(4-((methylamino)methyl)phenyl)-1,3,4-oxadiazol-2-yl)pyrazin-2-yl)cyclopropyl)((R)-3-aminopyrrolidin-1-yl)methanone]
13 | 100 to 1000 nM | Cc1ccc2nc(-c3nc(N4CCN(c5ccccc5)CC4)cnc3N)[nH]c2c1 [Compound I-30, 3-(6-methyl-1H-benzo[d]imidazol-2-yl)-5-(4-phenylpiperazin-1-yl)pyrazin-2-amine]
14 | 100 to 1000 nM | CNCCC(=O)N1CC=C(c2cnc(N)c(-c3nc4ccccc4[nH]3)n2)CC1 [Compound I-346, 1-(4-(5-Amino-6-(1H-benzo[d]imidazol-2-yl)pyrazin-2-yl)-5,6-dihydropyridin-1(2H)-yl)-3-(methylamino)propan-1-one]
15 | 100 to 1000 nM | CC(=O)N[C@H]1CCN(c2cnc(N)c(-c3nc4ccc(C)cc4[nH]3)n2)C1 [Compound I-4, (S)-N-(1-(5-amino-6-(6-methyl-1H-benzo[d]imidazol-2-yl)pyrazin-2-yl)pyrrolidin-3-yl)ethanamide]
16 | 1000 to 10000 nM | COCCOC(=O)N1CCN(c2cnc(N)c(-c3nc4ccccc4[nH]3)n2)CC1 [Compound I-266, 2-methoxyethyl 4-(5-amino-6-(1H-benzo[d]imidazol-2-yl)pyrazin-2-yl)piperazine-1-carboxylate]
17 | 100 to 1000 nM | Nc1ncc(N2CC=C(c3nccs3)CC2)nc1-c1nnc(-c2ccccc2)o1 [Compound I-290, 3-(5-phenyl-1,3,4-oxadiazol-2-yl)-5-(4-thiazol-2-yl-3,6-dihydro-2H-pyridin-1-yl)pyrazin-2-amine]
18 | 1000 to 10000 nM | Cc1ccc2nc(-c3nc(N4CCCC(N(C)C)C4)cnc3N)[nH]c2c1 (centres unmarked) [Compound I-51, 5-(3-(dimethylamino)piperidin-1-yl)-3-(6-methyl-1H-benzo[d]imidazol-2-yl)pyrazin-2-amine]
19 | 1000 to 10000 nM | COCCOCC(=O)N1CCN(c2cnc(N)c(C(=O)Nc3ccccn3)n2)CC1 [Compound I-151, 3-amino-6-(4-(2-(2-methoxyethoxy)ethanoyl)piperazin-1-yl)-N-(pyridin-2-yl)pyrazine-2-carboxamide]
20 | 100 to 1000 nM | CCS(=O)(=O)N1CCN(c2cnc(N)c(C(=O)Nc3ccccn3)n2)CC1 [Compound I-55, 3-amino-6-(4-(ethylsulfonyl)piperazin-1-yl)-N-(pyridin-2-yl)pyrazine-2-carboxamide]
21 | 100 to 1000 nM | CCS(=O)(=O)N1CC=C(c2cnc(N)c(-c3nc4cc(C)c(C)cc4[nH]3)n2)CC1 [Compound I-154, 3-(5,6-dimethyl-1H-benzo[d]imidazol-2-yl)-5-(1-(ethylsulfonyl)-1,2,3,6-tetrahydropyridin-4-yl)pyrazin-2-amine]
22 | 100 to 1000 nM | CNCc1ccc(-c2nnc(-c3nc(N4CCC[C@H]4CO)cnc3N)o2)cc1 [Compound I-352, [(2S)-1-[5-Amino-6-[5-[4-(methylaminomethyl)phenyl]-1,3,4-oxadiazol-2-yl]pyrazin-2-yl]pyrrolidin-2-yl]methanol]
23 | < 100 nM | Nc1ncc(C2=CCN(S(=O)(=O)C3CC3)CC2)nc1-c1nnc(-c2ccccc2)o1 [Compound I-122, 5-(1-(cyclopropylsulfonyl)-1,2,3,6-tetrahydropyridin-4-yl)-3-(5-phenyl-1,3,4-oxadiazol-2-yl)pyrazin-2-amine]
24 | 100 to 1000 nM | CCS(=O)(=O)N1CC=C(c2cnc(N)c(-c3nc4ccc(C)c(C)c4[nH]3)n2)CC1 [Compound I-152, 3-(6,7-dimethyl-1H-benzo[d]imidazol-2-yl)-5-(1-(ethylsulfonyl)-1,2,3,6-tetrahydropyridin-4-yl)pyrazin-2-amine]
25 | 1000 to 10000 nM | CCS(=O)(=O)N1CCN(c2cnc(N)c(-c3cc4ccccc4[nH]3)n2)CC1 [Compound I-61, 5-(4-(ethylsulfonyl)piperazin-1-yl)-3-(1H-indol-2-yl)pyrazin-2-amine]

Row | Compound | Ki
26 | N#CCN1CC=C(c2cnc(N)c(-c3nc4ccccc4[nH]3)n2)CC1 [Compound I-76, 2-(4-(5-amino-6-(1H-benzo[d]imidazol-2-yl)pyrazin-2-yl)-5,6-dihydropyridin-1(2H)-yl)ethanenitrile] | 100 to 1000 nM
